The target of the experiment is T1, porcine aminopeptidase M (EC 3.4.11.2) (Sus scrofa, UniProt P15145).
T1 construct: purchased Sigma Aldrich; host or cells: pig kidney (tissue-derived)
T1 sequence (P15145 1-963): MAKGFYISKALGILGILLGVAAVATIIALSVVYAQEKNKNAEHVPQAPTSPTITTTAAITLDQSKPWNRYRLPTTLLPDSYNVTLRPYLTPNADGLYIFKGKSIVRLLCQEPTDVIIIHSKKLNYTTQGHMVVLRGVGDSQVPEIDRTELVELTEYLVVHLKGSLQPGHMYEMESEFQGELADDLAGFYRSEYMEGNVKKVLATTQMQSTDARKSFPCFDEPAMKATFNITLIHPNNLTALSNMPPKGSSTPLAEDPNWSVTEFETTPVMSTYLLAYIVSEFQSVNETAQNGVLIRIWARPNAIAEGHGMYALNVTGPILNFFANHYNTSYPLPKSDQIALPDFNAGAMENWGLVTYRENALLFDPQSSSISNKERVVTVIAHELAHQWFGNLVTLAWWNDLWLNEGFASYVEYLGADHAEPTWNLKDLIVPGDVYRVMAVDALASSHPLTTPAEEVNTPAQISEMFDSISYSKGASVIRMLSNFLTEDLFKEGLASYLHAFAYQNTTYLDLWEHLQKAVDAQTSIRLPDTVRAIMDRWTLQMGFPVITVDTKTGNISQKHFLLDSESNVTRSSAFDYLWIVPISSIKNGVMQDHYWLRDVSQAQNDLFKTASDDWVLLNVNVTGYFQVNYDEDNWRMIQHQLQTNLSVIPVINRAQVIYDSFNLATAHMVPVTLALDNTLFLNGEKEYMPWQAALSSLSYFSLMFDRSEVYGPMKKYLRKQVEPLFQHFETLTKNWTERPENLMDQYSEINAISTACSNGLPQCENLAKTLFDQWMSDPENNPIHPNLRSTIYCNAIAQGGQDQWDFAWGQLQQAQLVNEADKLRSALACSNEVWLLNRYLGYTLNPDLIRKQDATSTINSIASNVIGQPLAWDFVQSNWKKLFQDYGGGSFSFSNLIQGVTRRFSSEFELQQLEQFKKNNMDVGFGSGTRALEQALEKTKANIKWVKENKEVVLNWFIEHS
Kind of experiment: Aminopeptidase M inhibition, spectrophotometric, L-leucine-p-nitroanilide substrate. Type of experiment: biochemical. The settings on record: porcine AMP from pig kidney, 1 mU mL^-1; 0.1 M borate buffer pH 8.0; 30 min pre-incubation at 30 °C; inhibitor 0.1-10 μM; L-leucine-p-nitroanilide 1.2 mM; absorbance 405 nm; triplicate, average of three independent experiments.

Peptide text beside a SMILES is read from it.

The record followed here is PMC6930480, “Inhibition of Porcine Aminopeptidase M (pAMP) by the Pentapeptide Microginins” (Molecules, 2019).

Description: Inhibition assay spectrophotometrically performed using porcine aminopeptidase M (EC 3.4.11.2, from pig kidney—Sigma Aldrich®). After 30 min pre-incubation at 30 °C, 5 μL of the commercial aminopeptidase M enzyme (1 mU mL^−1) added to microginin solutions (concentrations of 0.1, 0.25, 0.5, 1, 5 and 10 μM). […] The final volume at the 96-well plates was 75 μL (medium composed of 0.1 M borate buffer, Ph 8.0). After 30 min pre-incubation, 30 μL of the L-leucine-p-nitroanilide substrate at the concentration of 1.2 mM were added for the microginins AMP inhibition assays. The kinetics of inhibition of AMP were determined and the reaction interrupted with the addition of 25 μL of 30% acetic acid solution.
To obtain the factor used for the calculation of specific activity, a standard curve was performed with the product of the reaction (p-nitroanilide 1 mM), obtaining the slope of the curve. Absorbance reading was performed on the Spectra Max M2-Molecular Devices® 96-well plate reader with SoftMax Pro® software version 5.3, and the p-nitroanilide product concentrations were determined by the millimolar extinction coefficient at 405 nm as 9.96 (Sigma-Aldrich). After reading the samples, the residual activity calculations performed in mU mL^−1, percentage of activity and inhibition. […]

Broadly, the IC50 is the concentration at which inhibition is half-maximal. A high value points to a need for much substance. The compound `CCCCCCC[C@@H](N)[C@H](O)C(=O)N[C@H](C(=O)N[C@@H](CC(C)C)C(=O)N[C@@H](CCc1ccc(O)cc1)C(=O)N[C@@H](Cc1ccc(O)cc1)C(=O)O)C(C)C` [MG756, Ahda-Val-Leu-HTy-Tyr] (HELM PEPTIDE1{[CCCCCCC[C@@H](N)[C@H](O)C(=O)[*:2]].V.L.[O=C([C@H](CCc1ccc(O)cc1)N[*:1])[*:2]].Y}$$$$V2.0) showed an IC50 of 3260 ± 500 nM.

`CCCCCCC[C@@H](NC)[C@H](O)C(=O)N[C@H](C(=O)N[C@@H](CC(C)C)C(=O)N[C@@H](CCc1ccc(O)cc1)C(=O)N[C@@H](Cc1ccc(O)cc1)C(=O)O)C(C)C` [MG770, N-Me-Ahda-Val-Leu-HTy-Tyr] (HELM PEPTIDE1{[CCCCCCC[C@@H](NC)[C@H](O)C(=O)[*:2]].V.L.[O=C([C@H](CCc1ccc(O)cc1)N[*:1])[*:2]].Y}$$$$V2.0) displayed an IC50 of 1200 ± 100 nM.
